Laboratory results as given in patent US8685695B2, “Method for producing a mixture of bacteriophages and the use thereof in the therapy of antibiotic-resistant staphylococci” (priority 2008, dated 2014).
Like-named read-outs stand apart in the source and are kept apart here.

How the values were obtained:
[1] = system: S. aureus M.06.02.0071 (USA300, MRSA, ST8); format: in vivo, mouse; details: for Percentage of surviving animals: antibiotics 2 × day
Description: A non-sensitive antibiotic (ciprofloxacin) and a sensitive antibiotic (vancomycin) were also used to allow a comparison to be made.
Four groups, each of 20 mice weighing approximately 25 g, were first subjected to immunosuppression to ensure that they would be adequately infected by S. aureus. The immunosuppression began with an application of cyclophosphamide 4 days before the bacterial infection. A further application of cyclophosphamide was carried out 1 day before, together with a once-only administration of cortisone. The immunosuppression with cyclophosphamide was repeated at intervals of 3 days.
The strain of S. aureus which was selected for the infection was resistant to this antibiotic.
The strain of S. aureus which was selected for the infection (internal designation M.06.02.0071) was an isolate which was supplied by the Robert-Koch-Institut of Wernigerode. This S. aureus is a member of the group of USA300 (MRSA, ST8) strains which are considered particularly virulent due to the presence of the virulence factor PVL.
On day 0, the mice had 1.5×10^7 CFU of the S. aureus applied to them intratrachially under anaesthetic.
The medicament, which was applied intratrachially under anaesthetic, was a one-off dose of 5.5×10^10 PFU of a 1:1 mixture of the bacteriophages DSM 18722 and DSM 18723 either one hour before the infection or one hour after the infection. One group, beginning 1 day before the infection, was also treated subcutaneously with vancomycin twice a day.
The main parameter was the determination of lethality as a function of the time elapsed since the start of the test. The length of the test was 14 days.

[2] = system: S. aureus M.06.02.0071; test: Sensitivity of the strain to bacteriophages and antibiotics; format: cell-based, Staphylococcus aureus
[3] = system: S. aureus DSM 18421; test: Nanocalorimetric measurement of metabolism; format: cell-based, Staphylococcus aureus; details: antibiotics 10 μg/ml; bacteriophages 4×10^9 PFU/ml
Description: (§1) Another sensitive method of examining the activity of micro-organisms is available in the form of nanocalorimetry. In this technique, metabolic action is measured by way of the heat it produces. The production of heat is measured from the voltage (in [p\/]) generated at thermocouples.
(§2) A detailed description of the measuring system used and the procedure can be found in: J. Lerchner et al., Thermochimica Acta 477, 2008, 48-53.
(§3) The concentration of the bacteriophages was 4×10^9 PFU/ml.

[4] = system: S. aureus M.06.02.0071; test: Nanocalorimetric measurement of metabolism; format: cell-based, Staphylococcus aureus; details: antibiotics 10 μg/ml; bacteriophages 4×10^9 PFU/ml
Description: as §1, §2, §3

[5] = system: S. aureus from tissue (M.06.02.0071, mouse pneumonia model); test: Nanocalorimetric measurement of metabolism, bacteria isolated from lung tissue; format: cell-based, Staphylococcus aureus; details: antibiotics 10 μg/ml, bacteriophages 4×10^9 PFU/ml
Description: as §1, §2, §3

[6] = system: S. aureus DSM 18421; test: Sensitivity of the strain to bacteriophages and antibiotics; format: cell-based, Staphylococcus aureus
[7] = system: Staphylococcus aureus DSM 18421; test: Lysis of Staphylococcus aureus DSM 18421 in saliva (viable cell count); format: cell-based
Description: • Morning saliva (before breakfast and before cleaning of teeth) was collected from different individual persons. • The saliva samples were centrifuged for 5 min at room temperature at 12,000 rpm. • The supernatant liquid was removed and sterile filtered (0.8 μm pre-filter, then a 0.22 μm filter). • The samples of saliva were mixed 1:1 in a sterile vessel. 7.2 Incubation of the Preparations for Lysis • To the saliva prepared as described above were also added: • approx. 1×10^4 CFU/ml of DSM 18421 (from a suitable dilution of the overnight culture), • approx. 1×10^8 PFU/ml of phages (Simba Top, 1:1 mixture of purified M and K phages). • Used in addition were serralysin (100 U/ml), dornase (25 μml) or benzonase (25 μml) or a combination of these enzymes. • The enzymes were added right at the start of the incubation. • A control incubation was carried out at the same time in which the phages were replaced by adding the same volume of storage buffers (for composition see below). • The total volume of all the preparations was 2 ml. • The incubation was carried out in 10 ml glass penicillin bottles at 37° C. and 200 rpm (in a shaker incubator) 7.3 Determination of the Viable Cell Count (CFU/ml) After 6 h • After an incubation period of 6 h, an aliquot was taken from each preparation and a factor-of-ten dilution series prepared from it. • 2-5 suitable dilutions were selected from each dilution series and 2×100 μl (twin samples) of each were plated (with a Drigalski spatula). • The plating was performed onto LB agar in the case of the phage-free preparations and onto LB agar containing 0.01% citrate in the case of the preparations containing phages. • After at least 16 h of incubation at 37° C., the colony forming units (CFU's) were counted on each plate • Only plates which had at least 20 CFU's were used to calculate the FIGURE for CFU/ml • A representation in graph form was prepared by plotting CFU/ml (in logarithmic form) against the period of incubation.
Period of incubation: 6 hours Medium: saliva (human; mixture)

[8] = Table 10, 6 h, 37° C., phages approx. 1×10^8 PFU/ml, serralysin 100 U/ml

Compound: O=C(O)c1cn(C2CC2)c2cc(N3CCNCC3)c(F)cc2c1=O [Ciprofloxacin, ciprofloxacin]
- Percentage of surviving animals ([1]; 0 hours after infection): 100%
- Percentage of surviving animals ([1]; 5 hours after infection): 100%
- Percentage of surviving animals ([1]; 19 hours after infection): 60%
- Percentage of surviving animals ([1]; 23 hours after infection): 45%
- Percentage of surviving animals ([1]; 29 hours after infection): 35%
- Percentage of surviving animals ([1]; 43 hours after infection): 10%
- Percentage of surviving animals ([1]; 47 hours after infection): 10%
- Sensitivity of the strain, in words [2]: resistant

Compound: CN[C@H](CC(C)C)C(=O)N[C@H]1C(=O)N[C@@H](CC(N)=O)C(=O)N[C@H]2C(=O)N[C@H]3C(=O)N[C@H](C(=O)N[C@H](C(=O)O)c4cc(O)cc(O)c4-c4cc3ccc4O)[C@H](O)c3ccc(c(Cl)c3)Oc3cc2cc(c3O[C@@H]2O[C@H](CO)[C@@H](O)[C@H](O)[C@H]2O[C@H]2C[C@](C)(N)[C@H](O)[C@H](C)O2)Oc2ccc(cc2Cl)[C@H]1O [Vancomycin, vancomycin]
- Mortality in the acute phase, in words ([1]; bacteriophages one-off before the infection, vancomycin prior and thereafter continuous, compared with the placebo): reduction in mortality
- % relative to control [3]: 36%
- Difference voltage [3]: −3.681 μV
- % relative to control [4]: 41%
- Difference voltage [4]: −4.132 μV
- % relative to control [5]: 61%
- Difference voltage [5]: −0.438 μV
- Sensitivity of the strain, in words [6]: sensitive
- Sensitivity of the strain, in words [2]: sensitive

Compound: serralysin
- Effect on the colony count of S. aureus in saliva, in words ([7]; 6 h): did not cause a reduction in the colony count
- Colony count, % of control without phages [7, 8]: 130%
- Viable cell count [7, 8]: 1.14 × 10^6 CFU/ml
